{"source": "patent US20060182790A1", "about": "“Dermal medicaments application enhancer” (priority 2005, published 2006)", "origin": "cited, not measured here"}
{"smiles": "Cl.NCC(=O)CCC(=O)O", "note": "[ALA HCl, 5-amino-4-oxopentanoic acid hydrochloride]", "values": [{"measurement": "solubility in chloroform", "setting": "chloroform", "result": "practically insoluble"}, {"measurement": "solubility in ethanol", "setting": "ethanol", "result": "slightly soluble"}, {"measurement": "solubility in hexane", "setting": "hexane", "result": "practically insoluble"}, {"measurement": "solubility in methanol", "setting": "methanol", "result": "slightly soluble"}, {"measurement": "solubility in mineral oil", "setting": "mineral oil", "result": "practically insoluble"}, {"measurement": "solubility in water", "setting": "water", "result": "very soluble"}]}
